# How the values were obtained:
# [1] = tested on: BRCA2-deficient PE01 ovarian cancer cells (BRCA2-); experiment: Cell viability assay (PrestoBlue, 72 h), PE01; type: cell-based; conditions: Homo sapiens, estimated from the graphs
# Experimental: BRCA2-deficient PE01 cell line (a gift from Dr. Toshiyasu Taniguchi, Tokai University, Japan) were derived from an ovarian cancer patient. BRCA2-proficient “revertant” cell line, C4-2 is one of eight clones derived from PE01 that has acquired resistance to both cisplatin and PARPi due to a secondary mutation that restored the BRCA2 function. PE01 and PE01 C4-2 were grown and maintained in DMEM high glucose (Hyclone) supplemented with 10% Fetal Bovine Serum (FBS, Invitrogen).
# (§1) Cells were seeded 5 x 10^3 cells per well in 96-well plates in a 90 μL volume per well one day before treatment. Cells in 96-well plates were incubated with increasing concentrations of the compound or vehicle control (1% DMSO) for 72 hours. Each treatment plate contained nine concentrations of a compound in sextuplicate. Growth inhibition was determined using PrestoBlue reagent (Life Technologies, #A13261). Fluorescent measurements were taken using a Spectramax M5 plate reader (MDS). To assess cells’ replication in the absence of compounds as a control, six wells on each plate were treated with vehicle to be read in triplicate at the initial treatment day (T0) and at 72-hour read (T100).
# [2] = tested on: PARPi-resistant UWB1.SYr13 cells; experiment: Cell viability assay (PrestoBlue, 72 h), UWB1.SYr13; type: cell-based; conditions: Homo sapiens, estimated from the graphs
# Text: BRCA1-deficient UWB1.289 cells corrected with wild-type BRCA1 gene (BRCA1+; closed triangle) and parental BRCA1-deficient UWB1.289 (BRCA1-; closed circle). Two PARPi-resistant cell lines derived from UWB1.289, UWB1.289.SYr12 (closed diamond) and UWB1.SYr13 (X), were also examined.
# UWB1.289 (a gift from Dr. Lee Zou, Harvard Medical School, Boston, MA) were derived from a serous ovarian carcinoma with a germline BRCA1 mutation and a deletion of the wild-type allele. […] Two PARP-resistant cell lines, SYr12 and SYr13, were derived from the UWB1.289. The Mammary Epithelial growth media, along with SupplementMix solution for UWB1 cell lines, were obtained from PromoCell GmbH and mixed as described.
# as §1
# [3] = molecular target: T1, RPA:RAD52 protein-protein interaction (Homo sapiens, UniProt P43351); experiment: FluorIA (Fluorescence-based protein-protein Interaction Assay), GFP-RAD52 binding to plate-coated RPA; conditions: polynomial curve fitting; 15 dose concentrations 0.03–500 μM, triplicate; RAD52(1–303) positive control; read-out: EC50 in FluorIA (inhibition of RPA:RAD52 PPI)
# T1 construct: made in house
# T1 sequence (P43351 1-418): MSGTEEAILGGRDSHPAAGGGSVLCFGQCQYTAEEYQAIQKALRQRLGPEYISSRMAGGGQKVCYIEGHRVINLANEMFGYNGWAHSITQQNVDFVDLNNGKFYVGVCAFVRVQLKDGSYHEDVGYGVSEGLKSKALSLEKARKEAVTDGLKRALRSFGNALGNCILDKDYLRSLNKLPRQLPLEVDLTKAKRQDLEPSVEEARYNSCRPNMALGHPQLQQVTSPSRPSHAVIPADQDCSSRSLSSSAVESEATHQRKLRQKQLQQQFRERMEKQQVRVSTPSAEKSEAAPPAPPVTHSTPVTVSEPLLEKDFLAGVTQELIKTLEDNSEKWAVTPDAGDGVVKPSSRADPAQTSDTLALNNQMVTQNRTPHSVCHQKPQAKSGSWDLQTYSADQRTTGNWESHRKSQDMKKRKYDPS
# Experimental: A newly developed fluorescence-based assay for detecting protein-protein interactions, FluorIA was used to identify SMIs of RPA:RAD52 PPI. The detailed FluorIA protocol is published elsewhere. Briefly, 384-well plates (Thermo Fisher Scientific, #460518) were coated with purified RPA. Then compounds or controls were added and incubated with freshly prepared GFP-RAD52. RAD52(1–303) without GFP-tag and buffer (including DMSO) only were used as controls. Then the relative fluorescence (RFU) was measured using a POLARstar OPTIMA plate reader (BMG LABTECH) on emptied plates at an excitation/emission (for eGFP) of 485/520 nm at 2500 gain setting.
# Three chemical libraries the 355-member SelleckChem Kinase Inhibitor Library, the 1200-member Prestwick Chemical Library, and the 100,000-member ChemBridge library were used for the screening. The screening of the SelleckChem Kinase Inhibitor and the Prestwick libraries were performed at 10 and 100 μM each in duplicate. The screening of the ChemBridge library was conducted at 100 μM. […] The statistical criteria for a hit were fully described in Al-Mugotir et al.. Each hit was verified in triplicate at 10 and 100 μM.
# The in vitro EC50 value of each hit was determined with FluorIA. The chemicals were serially diluted by two-fold increments from 0.030 to 500 μM and analyzed in triplicate with FluorIA. RAD52(1–303) was used as a positive control and buffer with DMSO was used as a negative control. Candidate SMIs with strong inhibition were purchased, and a 1D NMR analysis was carried out to verify their identities. The eleven candidates SMIs were purchased as follows: 5137134, 5246481, 52614577,5316833, 5373030, and 7623574 from Chembridge HIT2LEAD, 5989499 from Wuxi lab network, 5375405 from Aronis, quinacrine and mitoxantrone from Sigma Aldrich, and doxorubicin from LC labs. D-I03 was purchased from Molport. Their effectiveness in inhibiting the RPA:RAD52 PPI was confirmed after purchase with the FluorIA as described above (S1 Fig).
# Supplementary file pone.0248941.s001.tif: S1 Fig Validation experiments of eleven hits with the FlourIA. Sixteen treatment concentrations were used (0.030–500 μM) increasing by two-fold increments of each molecule/drug obtained as a hit in HTS FluorIA. RAD52(1–303) without GFP-tag and buffer (including DMSO) only were used as controls. Percent inhibition was calculated as follows: [(RFUSMI—RFURAD52(1–303)) / (RFUDMSO—RFURAD52(1–303))]*100, where RFU is relative fluorescence unit. An average of triplicate measurements was used. The treatment points for quinacrine and doxorubicin beyond 125 μM were showing characteristics of aggregation and were not used. (TIF) Click here for additional data file.
smiles,measurement,setting,value
"O=C1c2c(O)ccc(O)c2C(=O)c2c(NCCNCCO)ccc(NCCNCCO)c21 [Mitoxantrone, mitoxantrone]",EC50,[1],0.1 µM
same,EC50,[2],2.5 µM
same,EC50,[3],29.7 µM
